# Laboratory results reported in ChEMBL document CHEMBL1201862, “PubChem BioAssay data set” (2004).
# Calls of active or inactive are those of the source.
# What was measured:
# [1] = target: Fructose-bisphosphate aldolase (Mycobacterium tuberculosis, UniProt P9WQA3); test: Fluorescence-based biochemical high throughput dose response assay for inhibitors of the fructose-bisphosphate aldolase (FBA) of M. tuberculosis.; assay type: functional
# [2] = target: T1, Trace amine-associated receptor 1 (Homo sapiens, UniProt Q96RJ0); test: Fluorescence-based cell-based high throughput dose response assay to identify agonists of the human trace amine associated receptor 1 (TAAR1).; assay type: functional
# T1 sequence (Q96RJ0 whole entry): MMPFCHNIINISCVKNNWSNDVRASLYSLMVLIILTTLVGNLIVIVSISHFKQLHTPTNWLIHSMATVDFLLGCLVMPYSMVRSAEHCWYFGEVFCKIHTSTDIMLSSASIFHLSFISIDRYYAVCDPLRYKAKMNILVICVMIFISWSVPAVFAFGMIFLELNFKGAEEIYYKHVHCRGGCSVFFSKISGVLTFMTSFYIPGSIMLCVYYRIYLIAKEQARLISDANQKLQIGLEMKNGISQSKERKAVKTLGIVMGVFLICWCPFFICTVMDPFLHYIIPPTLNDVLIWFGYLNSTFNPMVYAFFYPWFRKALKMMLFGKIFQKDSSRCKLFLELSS
# [3] = HPDE-C7 pancreatic duct cell viability loss – fluorescence, HTS (AID 430); assay type: functional, cell-based; settings: Homo sapiens
# [4] = viability of HCT116 lacking mutant beta-catenin – cell-based, human colon tumor, dose response (AID 1045); assay type: functional;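 also: HCT116 colon tumor cells with beta catenin knocked out; cells exposed to compound for 60 hours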
# [5] = target: T1, Trace amine-associated receptor 1; test: Counterscreen for agonists of the human trace amine associated receptor 1 (hTAAR1): Fluorescence-based cell-based high throughput dose response assay to identify hTAAR1 agonist that also desensitize TAAR1 receptor response.; assay type: functional
# [6] = viability loss of HPDE-C7K cells – cell-based, fluorescence, HTS, primary screen (AID 431); assay type: functional; settings: Homo sapiens
# [7] = viability of PTEN-deleted HCT116 cells – cell-based, HCT116 PTEN knockout, dose response (AID 1047); assay type: functional;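 also: HCT116 colon tumor cells with PTEN knocked out; cells exposed to compound for 60 hours before readout; potency for loss of cell viability measured by luminescence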
# cells [8] = assay type: functional, cell-based
# cells [9] = assay type: functional, cell-based; remark: listed apart in the source
# [10] = target: T2, Methionyl-tRNA synthetase, putative (Trypanosoma brucei brucei, UniProt Q38C91); assay type: functional, Trypanosoma brucei brucei strain 927/4 GUTat10.1
# T2 sequence (Q38C91 whole entry): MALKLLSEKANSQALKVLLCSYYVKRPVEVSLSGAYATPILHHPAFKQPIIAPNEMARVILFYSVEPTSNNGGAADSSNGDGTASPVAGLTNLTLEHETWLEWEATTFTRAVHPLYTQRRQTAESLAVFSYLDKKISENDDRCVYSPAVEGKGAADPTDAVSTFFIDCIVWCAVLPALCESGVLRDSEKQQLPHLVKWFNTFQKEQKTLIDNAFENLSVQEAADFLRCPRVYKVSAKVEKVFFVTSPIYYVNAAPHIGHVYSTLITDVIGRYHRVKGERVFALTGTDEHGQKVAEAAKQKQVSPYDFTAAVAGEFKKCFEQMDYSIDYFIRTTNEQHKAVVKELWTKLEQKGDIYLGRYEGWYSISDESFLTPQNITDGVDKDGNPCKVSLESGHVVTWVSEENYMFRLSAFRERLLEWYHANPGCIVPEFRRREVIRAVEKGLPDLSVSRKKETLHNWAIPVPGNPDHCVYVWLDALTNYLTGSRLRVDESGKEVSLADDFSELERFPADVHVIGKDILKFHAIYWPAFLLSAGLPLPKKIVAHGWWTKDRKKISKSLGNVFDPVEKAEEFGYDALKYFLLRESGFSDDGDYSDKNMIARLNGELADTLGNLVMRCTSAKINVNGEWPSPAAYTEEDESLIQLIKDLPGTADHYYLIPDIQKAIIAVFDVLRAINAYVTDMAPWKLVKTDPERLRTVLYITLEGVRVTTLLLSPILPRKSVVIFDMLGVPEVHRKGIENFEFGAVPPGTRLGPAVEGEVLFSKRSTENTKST
# [11] = target: T2, Methionyl-tRNA synthetase, putative; assay type: functional, Trypanosoma brucei brucei strain 927/4 GUTat10.1; remark: listed apart in the source
# [12] = HIV-1 AD8 envelope cell-cell fusion blockers – cherry-pick, dose response (AID 652062); assay type: functional, cell-based;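 also: luciferase signal from cell-cell fusion driven by HIV-1 clade B AD8 Env; potency is for inhibitors of fusion seen as a drop in luminescence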
# [13] = off-target signal loss in HeLa-CEM21 co-culture – HeLa F-luc CTL cells, cherry-picked, counter-screen for HIV-1 Env fusion inhibitor project, dose response (AID 652040); assay type: functional, cell-based;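 also: potency for signal decrease marking cytotoxic or nonspecific inhibition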
# [14] = blockers of HIV-1 ZM109 envelope-driven cell-cell fusion – HeLa effector, CEM target cells, luciferase, cherry-pick, dose response (AID 652058); assay type: functional, cell-based;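 also: luciferase signal from HIV-1 Env mediated cell-cell fusion of effector and target cells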
# [15] = blockers of HIV-1 envelope-mediated cell-cell fusion – cherry-pick, dose response (AID 652057); assay type: functional, cell-based
# [16] = viability loss in CEM21 cells – cell-based, CellTiter-Glo luminescence, cherry-picked, cytotoxicity control for viral fusion inhibitor project, dose response (AID 652042); assay type: functional;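 also: potency for signal decrease meaning cytotoxicity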
# [17] = target: Long-chain-fatty-acid--AMP ligase FadD28 (Mycobacterium tuberculosis, UniProt P9WQ59); test: Fluorescence polarization aasay to screen for inhibitors that compete for the binding of FadD28 to a bisubstrate Measured in Biochemical System Using Plate Reader - 2147-01_Inhibitor_Dose_CherryPick_Activity.; assay type: functional, Mycobacterium tuberculosis H37Rv
# Long-chain-fatty-acid--AMP ligase FadD28, sequence (P9WQ59 whole entry): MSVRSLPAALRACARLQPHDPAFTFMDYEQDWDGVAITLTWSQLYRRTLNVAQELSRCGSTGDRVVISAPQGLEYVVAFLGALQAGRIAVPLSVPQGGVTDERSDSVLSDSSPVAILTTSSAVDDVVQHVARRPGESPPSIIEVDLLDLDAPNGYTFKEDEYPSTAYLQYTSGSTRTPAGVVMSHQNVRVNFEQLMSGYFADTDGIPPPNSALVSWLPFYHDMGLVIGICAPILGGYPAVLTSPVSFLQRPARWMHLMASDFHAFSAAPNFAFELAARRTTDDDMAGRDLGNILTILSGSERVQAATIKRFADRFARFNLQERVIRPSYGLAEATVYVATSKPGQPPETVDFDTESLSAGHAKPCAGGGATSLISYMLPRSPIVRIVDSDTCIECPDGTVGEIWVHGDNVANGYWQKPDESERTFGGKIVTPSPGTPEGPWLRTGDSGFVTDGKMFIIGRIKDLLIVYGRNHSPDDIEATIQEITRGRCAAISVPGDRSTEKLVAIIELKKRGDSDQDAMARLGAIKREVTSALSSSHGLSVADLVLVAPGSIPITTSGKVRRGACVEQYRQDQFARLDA
# Vero = test: viability loss in Vero cells – cell-based, plate reader, cherry-pick samples, cytotoxicity control, dose response (AID 687020); assay type: functional; settings: Chlorocebus sabaeus
# cells [18] = assay type: functional
# Albumin = Albumin (Bos taurus, UniProt P02769); test: Counterscreen for inhibitors of T-cell receptor (TCR)-CD3 interaction: Fluorescence-based biochemical high throughput dose response assay to identify inhibitors of T-cell receptor (TCR)-CD3 interaction using a TAMRA-labeled BSA probe.; assay type: functional
# Albumin, sequence (P02769 whole entry): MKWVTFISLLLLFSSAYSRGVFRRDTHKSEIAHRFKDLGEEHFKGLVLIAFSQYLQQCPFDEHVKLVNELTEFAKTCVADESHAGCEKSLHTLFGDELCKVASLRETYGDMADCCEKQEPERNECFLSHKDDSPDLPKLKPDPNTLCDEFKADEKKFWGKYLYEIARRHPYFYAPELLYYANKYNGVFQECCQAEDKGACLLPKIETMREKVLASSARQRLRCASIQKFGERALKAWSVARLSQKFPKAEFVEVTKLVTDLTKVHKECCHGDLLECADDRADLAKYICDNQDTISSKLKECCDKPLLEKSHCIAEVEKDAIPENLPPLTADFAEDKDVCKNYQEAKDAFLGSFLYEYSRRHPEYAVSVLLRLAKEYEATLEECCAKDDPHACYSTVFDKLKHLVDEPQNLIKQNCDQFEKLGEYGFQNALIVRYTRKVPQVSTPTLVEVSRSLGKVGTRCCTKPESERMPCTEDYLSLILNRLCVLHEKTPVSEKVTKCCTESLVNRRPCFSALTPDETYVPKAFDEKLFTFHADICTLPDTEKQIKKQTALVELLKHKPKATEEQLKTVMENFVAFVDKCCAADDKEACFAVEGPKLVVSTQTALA
# [19] = Vero E6 cell cytotoxicity, dose response, cytotoxicity control for non-replicating M. tuberculosis project, secondary assay (AID 492998); assay type: functional, VeroE6; settings: Vero C1008
# [20] = fluconazole-exposed Candida albicans growth modulators – fluorescence, retest, confirmation (AID 2467); assay type: functional, cell-based
# [21] = THP-1 cell cytotoxicity, dose response, cytotoxicity control for non-replicating M. tuberculosis project (AID 489025); assay type: functional
# [22] = HepG2 cell cytotoxicity, dose response, cytotoxicity control for non-replicating M. tuberculosis project (AID 489018); assay type: functional; settings: Mycobacterium tuberculosis
# [23] = NIH-3T3 fibroblast cytotoxicity, dose response, cytotoxicity control, cell-based, fluorescence, Alamar Blue, secondary assay (AID 2327); assay type: functional;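 also: NIH-3T3 mouse fibroblasts cultured with fluconazole at 8 µg/mL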
# Beta-lactamase [24] = target: Beta-lactamase (Salmonella choleraesuis (strain SC-B67), UniProt Q5J463)
# Beta-lactamase (Salmonella choleraesuis (strain SC-B67), UniProt Q5J463), sequence (Q5J463 whole entry): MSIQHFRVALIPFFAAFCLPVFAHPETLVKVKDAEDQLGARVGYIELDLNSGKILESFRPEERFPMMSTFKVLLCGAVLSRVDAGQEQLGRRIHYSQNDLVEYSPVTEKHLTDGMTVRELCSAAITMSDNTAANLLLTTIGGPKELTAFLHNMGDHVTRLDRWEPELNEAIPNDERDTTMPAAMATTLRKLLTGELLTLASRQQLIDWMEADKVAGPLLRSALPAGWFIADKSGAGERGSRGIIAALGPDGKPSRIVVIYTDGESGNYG
# Beta-lactamase [25] = target: Beta-lactamase (Pseudomonas aeruginosa, UniProt Q79MP6);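 also: biochemical dose-response test of metallo-beta-lactamase enzyme inhibition, read out by epi-absorbance; purified recombinant IMP-1 metallo-beta-lactamase with nitrocefin as substrate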
# Beta-lactamase (Pseudomonas aeruginosa, UniProt Q79MP6), sequence (Q79MP6 whole entry): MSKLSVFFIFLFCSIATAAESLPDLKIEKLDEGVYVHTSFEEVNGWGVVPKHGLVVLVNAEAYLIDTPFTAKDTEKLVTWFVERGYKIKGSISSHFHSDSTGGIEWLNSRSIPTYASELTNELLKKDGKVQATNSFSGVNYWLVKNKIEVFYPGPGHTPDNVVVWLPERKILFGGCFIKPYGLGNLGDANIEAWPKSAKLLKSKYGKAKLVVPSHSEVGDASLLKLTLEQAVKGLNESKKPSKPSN
# Melanocortin receptor 4 = Melanocortin receptor 4 (Homo sapiens, UniProt P32245); assay type: functional, cell-based;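 also: Cell-based assay with luminescence read-out, confirmatory dose-response testing for agonist activity of biased ligands at MC4R; human U2OS cells with tagged receptor and beta-arrestin; potency of agonists that increase receptor coupling to beta-arrestin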
# Melanocortin receptor 4, sequence (P32245 whole entry): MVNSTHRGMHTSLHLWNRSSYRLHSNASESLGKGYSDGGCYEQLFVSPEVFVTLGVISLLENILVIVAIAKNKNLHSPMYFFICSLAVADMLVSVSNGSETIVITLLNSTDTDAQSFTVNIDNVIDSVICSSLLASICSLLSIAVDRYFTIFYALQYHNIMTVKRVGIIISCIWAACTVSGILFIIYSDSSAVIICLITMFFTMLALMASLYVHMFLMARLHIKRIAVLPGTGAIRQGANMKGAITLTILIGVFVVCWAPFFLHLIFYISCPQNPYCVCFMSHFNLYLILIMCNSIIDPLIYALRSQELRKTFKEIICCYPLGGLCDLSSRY
# [26] = Counterscreen for inhibitors of Trypanosoma brucei methionyl tRNA synthetase (MetRS): Luminescence-based cell-based high throughput dose response assay to identify compounds that are cytotoxic to Jurkat human T lymphocyte cells.; assay type: functional
# [27] = human cervical cancer cell viability loss – 24 h, plate reader, dry powder, cytotoxicity control, dose response (AID 686928); assay type: functional, cell-based; settings: HeLa
# Cytochrome P450 2D6 = Cytochrome P450 2D6 (Homo sapiens, UniProt P10635);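 also: CYP2D6 member of a cytochrome P450 panel assay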
# Cytochrome P450 2D6, sequence (P10635 whole entry): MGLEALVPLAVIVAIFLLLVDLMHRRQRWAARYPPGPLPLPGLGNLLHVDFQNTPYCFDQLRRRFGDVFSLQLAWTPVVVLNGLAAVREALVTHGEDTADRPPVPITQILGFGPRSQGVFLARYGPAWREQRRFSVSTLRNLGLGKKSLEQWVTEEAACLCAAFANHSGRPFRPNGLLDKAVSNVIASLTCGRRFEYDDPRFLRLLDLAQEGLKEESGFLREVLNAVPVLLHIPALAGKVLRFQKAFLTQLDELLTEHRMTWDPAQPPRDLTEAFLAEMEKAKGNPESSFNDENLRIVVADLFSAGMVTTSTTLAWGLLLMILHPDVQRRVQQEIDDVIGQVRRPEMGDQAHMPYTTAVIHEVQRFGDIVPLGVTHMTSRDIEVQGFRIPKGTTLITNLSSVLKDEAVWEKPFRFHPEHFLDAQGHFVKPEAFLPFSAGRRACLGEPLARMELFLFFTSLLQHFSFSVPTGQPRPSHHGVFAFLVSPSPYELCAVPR
# Cytochrome P450 2C9 = Cytochrome P450 2C9 (Homo sapiens, UniProt P11712)
# Cytochrome P450 2C9, sequence (P11712 whole entry): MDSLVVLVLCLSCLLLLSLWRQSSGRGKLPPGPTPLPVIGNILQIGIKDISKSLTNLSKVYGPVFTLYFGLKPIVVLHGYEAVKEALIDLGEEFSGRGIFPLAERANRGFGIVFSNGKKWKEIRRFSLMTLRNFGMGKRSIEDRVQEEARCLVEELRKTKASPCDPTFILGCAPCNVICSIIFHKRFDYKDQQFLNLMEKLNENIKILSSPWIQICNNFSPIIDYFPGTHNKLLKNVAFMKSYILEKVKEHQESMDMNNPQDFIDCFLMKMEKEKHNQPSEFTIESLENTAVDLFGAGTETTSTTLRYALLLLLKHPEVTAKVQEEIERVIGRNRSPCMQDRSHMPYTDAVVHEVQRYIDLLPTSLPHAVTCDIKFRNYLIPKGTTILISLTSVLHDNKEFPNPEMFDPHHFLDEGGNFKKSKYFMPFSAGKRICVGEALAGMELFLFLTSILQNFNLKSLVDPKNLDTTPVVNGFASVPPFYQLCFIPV
# Cytochrome P450 1A2 = target: T3, Cytochrome P450 1A2 (Homo sapiens, UniProt P05177);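 also: PubChem cytochrome P450 panel assay, CYP1A2 panel member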
# T3 sequence (P05177 whole entry): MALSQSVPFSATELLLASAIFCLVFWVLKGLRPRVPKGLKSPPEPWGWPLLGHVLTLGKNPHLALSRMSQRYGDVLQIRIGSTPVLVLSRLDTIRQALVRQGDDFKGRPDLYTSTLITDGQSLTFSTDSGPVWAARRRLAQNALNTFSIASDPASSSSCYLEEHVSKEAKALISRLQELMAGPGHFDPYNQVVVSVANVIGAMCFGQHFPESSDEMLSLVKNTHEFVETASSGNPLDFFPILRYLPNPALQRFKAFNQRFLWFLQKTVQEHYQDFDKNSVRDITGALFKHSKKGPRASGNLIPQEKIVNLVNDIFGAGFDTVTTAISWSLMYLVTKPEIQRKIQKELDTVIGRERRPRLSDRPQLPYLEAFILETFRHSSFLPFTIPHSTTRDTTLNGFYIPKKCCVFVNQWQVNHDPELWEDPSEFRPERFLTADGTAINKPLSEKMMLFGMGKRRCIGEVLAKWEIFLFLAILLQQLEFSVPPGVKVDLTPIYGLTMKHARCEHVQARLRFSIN
# [28] = system: Streptococcus sp. 'group A'; test: Streptococcus pyogenes SK(-)GAS viability under kanamycin – luminescence, BacTiterGlo, confirmation, counter-screen for streptokinase expression inhibitor project, dose response (AID 1900); assay type: functional, organism-based
# [29] = Trypanosoma cruzi growth suppression in host cells – NIH3T3 host cells, beta-gal luminescence, confirmation (AID 2044); assay type: functional, cell-based;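 also: intracellular parasites grown in NIH/3T3 mouse fibroblasts as host cells; luminescent beta-galactosidase reporter signal from transgenic T. cruzi replicating inside host cells; inhibitors lower the luminescence signal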
# [30] = NIH3T3 cell viability loss – ATP luminescence, mouse fibroblasts, counter-screen, dose response (AID 2010); assay type: functional, cell-based;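 also: cells exposed to compound for about 90 hours before reading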
# Streptococcus = test: GAS UMAA2166 growth inhibition – luminescence, BacTiterGlo, counter-screen for streptokinase expression inhibitor project, dose response (AID 1915); assay type: functional, organism-based;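 also: potency for reduction of bacterial viability or growth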
# Streptokinase A = target: T4, Streptokinase A (Streptococcus pyogenes serotype M1, UniProt P10520); test: viability-normalized secreted streptokinase activity reduction – plasminogen activation absorbance, OD405, dose response (AID 1914); assay type: functional, Streptococcus pyogenes M1 GAS;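 also: secreted streptokinase activity via plasminogen activation per viability signal from cell pellet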
# T4 sequence (P10520 whole entry): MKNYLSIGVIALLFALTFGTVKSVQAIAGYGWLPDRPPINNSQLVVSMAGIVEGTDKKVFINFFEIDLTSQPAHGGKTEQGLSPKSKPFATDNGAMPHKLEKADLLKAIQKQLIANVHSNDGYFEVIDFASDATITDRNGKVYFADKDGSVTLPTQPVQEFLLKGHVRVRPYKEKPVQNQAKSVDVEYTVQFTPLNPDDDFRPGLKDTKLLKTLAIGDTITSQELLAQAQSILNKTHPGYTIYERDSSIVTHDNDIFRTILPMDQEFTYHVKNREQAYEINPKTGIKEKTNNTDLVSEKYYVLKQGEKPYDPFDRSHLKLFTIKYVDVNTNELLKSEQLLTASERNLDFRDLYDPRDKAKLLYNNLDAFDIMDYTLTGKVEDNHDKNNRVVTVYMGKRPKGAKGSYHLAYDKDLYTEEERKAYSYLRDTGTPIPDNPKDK
# INS1 = test: INS-1E survival protection against cytokine death – cell-based, luminescence, retest, dose response (AID 449756); assay type: functional; settings: Rattus norvegicus;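 also: cell death triggered by IL-1 beta plus TNF-alpha plus IFN-gamma mixture; protective hits raise ATP signal compared with cytokine alone wells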
# Fructose-bisphosphate aldolase, sequence (P9WQA3 whole entry): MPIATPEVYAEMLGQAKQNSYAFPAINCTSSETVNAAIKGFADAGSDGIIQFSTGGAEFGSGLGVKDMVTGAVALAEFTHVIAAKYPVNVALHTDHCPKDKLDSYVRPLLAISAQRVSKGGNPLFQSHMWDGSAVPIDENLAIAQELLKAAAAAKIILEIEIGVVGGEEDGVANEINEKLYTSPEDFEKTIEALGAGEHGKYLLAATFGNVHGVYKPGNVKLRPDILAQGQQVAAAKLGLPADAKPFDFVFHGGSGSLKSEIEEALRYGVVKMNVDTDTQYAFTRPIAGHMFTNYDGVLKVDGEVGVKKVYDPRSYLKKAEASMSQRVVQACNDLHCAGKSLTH
structure (smiles),measurement,setting,value
O=C(Nc1ccc2c(c1)OCCO2)c1cccs1,IC50,[1],> 9.98 µM (inactive)
O=C(CCN1CCC(c2ccccc2)C1)c1cccs1 (centres undefined),EC50,[2],0.157 µM (active)
same,EC50,[3],> 20 µM (not active)
same,EC50,[4],29.3 µM (active)
same,IC50,[5],1.49 µM (active)
same,EC50,[6],> 20 µM (not active)
same,EC50,[7],34.1 µM (active)
same,IC50,cells [8],> 29.9 µM (inactive)
same,EC50,cells [9],> 29.9 µM (inactive)
Cc1cccc(NS(=O)(=O)c2ccc3nc(-c4ccccc4)[nH]c3c2)c1C,IC50,[10],119 µM (inactive)
same,IC50,[11],14.6 µM (inactive)
CCOc1ccc(C(O)(CCC(C)C)C(CN2CCOCC2)c2ccccc2)cc1 (centres undefined),AC50,[12],9.83 µM (active)
same,AC50,[13],5.42 µM (active)
same,AC50,[14],3.65 µM (active)
same,AC50,[15],3.6 µM (active)
same,AC50,[16],26.8 µM (active)
COc1cccc(NC(=O)CC(=O)c2ccc([N+](=O)[O-])cc2)c1,AC50,[17],94.1 µM (active)
CCCCC(CC)CNC(=O)C1C2C=CC(C2)C1C(=O)O (centres undefined),EC50,[2],> 29.9 µM (inactive)
same,IC50,[5],> 29.9 µM (inactive)
same,IC50,cells [8],> 29.9 µM (inactive)
same,EC50,cells [9],> 29.9 µM (inactive)
Cc1ccc(NC(=O)Cn2cccc2C2=NC(c3ccccc3)CO2)cc1C (centres undefined),AC50,Vero,27.9 µM (active)
COc1ccc(C(=O)NNC(=S)NC(=O)c2cccc([N+](=O)[O-])c2)cc1,IC50,cells [18],18.9 µM (active)
same,IC50,Albumin,> 94.1 µM (inactive)
same,CC50,[19],17.9 µM (active)
same,EC50,[20],2.63 µM (active)
same,CC50,[21],19.3 µM (active)
same,CC50,[22],> 20 µM (active)
same,EC50,[23],> 160 µM (inactive)
O=C(CCN1C(=O)/C(=C/c2ccc(Cl)cc2)SC1=S)NCCCn1ccnc1,IC50,Beta-lactamase [24],> 59.6 µM (inactive)
same,IC50,Beta-lactamase [25],> 59.6 µM (inactive)
CSc1nccc(Oc2ccccc2Cl)n1,IC50,[1],> 9.99 µM (inactive)
NC(Cc1ccc(C(F)(F)F)cc1)c1csc(NC(=O)Nc2ccccc2)n1 (centres undefined),AC50,[12],8.46 µM (active)
same,IC50,[10],1.47 µM (active)
same,AC50,[13],3.13 µM (active)
same,AC50,[14],2.21 µM (active)
same,AC50,[15],2.85 µM (active)
same,EC50,Melanocortin receptor 4,> 89.2 µM (inactive)
same,IC50,[11],2.39 µM (active)
same,AC50,[16],11.3 µM (active)
same,IC50,[26],24.7 µM (inactive)
COC(=O)C[C@H]1c2cc(C(F)(F)F)ccc2S(=O)(=O)N1Cc1ccc(OC)cc1,AC50,Vero,34.6 µM (active)
Cc1cc2cc3c(NC(=O)c4ccco4)nn(C)c3nc2cc1C,AC50,[27],147 µM (active)
COc1ccccc1NCc1nnc(SCC(=O)N/N=C/c2ccco2)n1-c1ccc(Cl)cc1Cl,AC50,Cytochrome P450 2D6,28.2 µM (inconclusive)
same,AC50,[17],> 100 µM (inactive)
same,AC50,Cytochrome P450 2C9,35.5 µM (inconclusive)
same,AC50,Cytochrome P450 1A2,28.2 µM (inconclusive)
C/C(=N\NC(=O)c1nnn(-c2nonc2N)c1CN(C)c1ccccc1)c1ccccc1O,IC50,Albumin,> 94.1 µM (inactive)
same,EC50,[28],5.37 µM (active)
same,EC50,[29],0.403 µM (active)
same,EC50,[30],5.57 µM (active)
same,EC50,Streptococcus,5.74 µM (active)
same,EC50,Streptokinase A,> 150 µM (not active)
same,AC50,INS1,2.15 µM (active)
